Molecular target: T1, EpxF (Goodfellowiella coeruleoviolacea, UniProt V5RNC8)
T1 construct: expressed in Escherichia coli; homodimer; residues 253-264 and 336-346 not defined in the density
T1 sequence (V5RNC8 2-563): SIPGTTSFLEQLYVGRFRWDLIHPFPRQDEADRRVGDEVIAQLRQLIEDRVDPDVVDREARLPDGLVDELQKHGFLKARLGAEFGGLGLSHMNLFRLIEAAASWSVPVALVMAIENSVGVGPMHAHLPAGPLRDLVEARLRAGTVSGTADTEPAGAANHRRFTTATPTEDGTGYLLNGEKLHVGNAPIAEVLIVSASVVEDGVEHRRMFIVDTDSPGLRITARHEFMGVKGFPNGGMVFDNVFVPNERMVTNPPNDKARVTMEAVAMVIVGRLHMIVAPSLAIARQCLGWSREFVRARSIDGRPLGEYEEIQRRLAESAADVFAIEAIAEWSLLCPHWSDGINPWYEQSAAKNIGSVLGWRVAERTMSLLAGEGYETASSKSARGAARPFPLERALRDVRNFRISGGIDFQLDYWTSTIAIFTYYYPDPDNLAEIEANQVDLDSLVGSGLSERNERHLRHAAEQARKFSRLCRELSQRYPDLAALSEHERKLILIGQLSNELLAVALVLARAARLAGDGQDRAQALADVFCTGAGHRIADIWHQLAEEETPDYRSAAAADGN
Test: X-ray crystal structure, […] Å
Assay type: binding
Conditions: FAD bound in both subunits of the homodimer, adenine anchored in the dimer interface

## Cc1cc2nc3c(=O)[nH]c(=O)nc-3n(C[C@H](O)[C@H](O)[C@H](O)COP(=O)(O)OP(=O)(O)OC[C@H]3O[C@@H](n4cnc5c(N)ncnc54)[C@H](O)[C@@H]3O)c2cc1C [FAD]
  X-ray crystal structure, 2.4 Å: electron density map depicts FAD bound at two distinct catalytic centers

— paper PMC12624316, “Studies of α′,β′‐Epoxyketone Synthesis by Small‐Molecule Flavins and Flavoenzymes” (Angewandte Chemie (International Ed. in English), 2025)
